Measured values reported in patent publication US20040157818A1, “Cxcr4-antagonistic drugs composed of nitrogen-containing compound” (priority 2001, published 2004).

Target: T1, CXCR4 (Homo sapiens, UniProt P61073)
T1 construct: endogenous in cells; host or cells: MT-4 cells
Test: CXCR4-binding inhibition activity (125I-SDF-1α binding to MT-4 cells)
Conditions: 0.1 μM test material, ligand 125I-SDF-1α, 2 hours under ice cold condition
Description: CXCR4-Binding Inhibition Activity
MT-4 cells (5×10^6/0.2 ml/well) were cultured on a 24-well microtiter plate. After the cells were incubated for 24 hours at 37° C. in a carbon dioxide gas incubator, a culture mediumwas replaced with a buffer solution (RPMI-1640 containing 0.1% BSA). Together with a ligand ^125I-SDF-1α (specific activity: 2,2000 Ci/mmol; DAIICHI PURE CHEMICALS CO. ,LTD. (Tokyo)), various concentrations of test materials were subjected to a binding reaction for 2 hours under ice cold condition.

T1 sequence (P61073 whole entry): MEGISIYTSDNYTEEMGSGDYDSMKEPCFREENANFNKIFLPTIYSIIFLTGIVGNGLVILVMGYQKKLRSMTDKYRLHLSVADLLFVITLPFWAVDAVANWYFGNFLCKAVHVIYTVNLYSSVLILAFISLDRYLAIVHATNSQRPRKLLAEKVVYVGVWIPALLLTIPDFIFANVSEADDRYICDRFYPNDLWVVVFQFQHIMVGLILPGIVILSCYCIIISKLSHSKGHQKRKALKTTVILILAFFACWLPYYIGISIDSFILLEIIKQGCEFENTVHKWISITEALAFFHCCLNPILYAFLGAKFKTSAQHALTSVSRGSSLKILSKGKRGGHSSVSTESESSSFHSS

## c1cc(CN2CCCNCCNCCCNCC2)ccc1CN1CCCNCCNCCCNCC1 [AMD3100, reference compound]
read-out: inhibition rate (binding-inhibition % at 0.1 μM)
  inhibition at 0.1 µM: 10%

## Cn1cccc1CNCCC[C@H](NC(=O)c1ccc(CNCc2ccccn2)cc1)C(=O)NCc1cccc2ccccc12 [Compound No. 5, (S)-2-(4-(N-2-picolylaminomethyl)benzoylamino)-5-((1-methylpyrrol-2-ylmethyl)amino)valerate 1-naphthalenemethylamide]
  inhibition rate (binding-inhibition % at 0.1 μM): 26.4%

## O=C(N[C@@H](CCCNC1CCCc2cccnc21)C(=O)NCc1cccc2ccccc12)c1ccc(CNCc2ncc[nH]2)s1 (some centres unmarked) [Compound No. 16]
  inhibition rate (binding-inhibition % at 0.1 μM): 75.3%

## O=C(N[C@@H](CCCNC1CCCc2cccnc21)C(=O)NCCc1c[nH]c2ccccc12)c1ccc(CNCc2ncc[nH]2)c2ccccc12 (stereo partly drawn) [Compound No. 19, (2S)-2-(4-((N-imidazol-2-ylmethyl)aminomethyl)naphthoylamino)-5-(5,6,7,8-tetrahydroquinolin-8-ylamino)2-(3-indolyl)ethylamide valerate]
  inhibition rate (binding-inhibition % at 0.1 μM): 73.8%

## O=C(N[C@@H](CCCNCc1ncc[nH]1)C(=O)NCc1cccc2ccccc12)c1ccc(CNCc2ncc[nH]2)cc1 [Compound No. 21, (S)-2-(4-((imidazol-2-ylmethyl)aminomethyl)benzoylamino)-5-((imidazol-2-ylmethyl)amino)valerate 1-naphthalenemethylamide]
  inhibition rate (binding-inhibition % at 0.1 μM): 12.8%

## O=C(N[C@@H](CCCNC1CCCc2cccnc21)C(=O)NCc1cccc2ccccc12)c1ccc(CNC2CCCc3cccnc32)c2ccccc12 (stereo partly drawn) [Compound No. 26, (2S)-2-(4-(5,6,7,8-tetrahydroquinolin-8-ylaminomethyl)naphthoyl)amino-5-(5,6,7,8-tetrahydroquinolin-8-ylamino)valerate 1-naphthalenemethylamide]
  inhibition rate (binding-inhibition % at 0.1 μM): 78.6%

## O=C(N[C@@H](CCCNCc1ccccn1)C(=O)NCc1cccc2ccccc12)c1ccc(CNCc2ccccn2)c2ccccc12 [Compound No. 27, (S)-2-(4-(N-2-picolylaminomethyl)naphthoylamino)-5-(2-picolylamino)valerate 1-naphthalenemethylamide]
  inhibition rate (binding-inhibition % at 0.1 μM): 82.1%

## O=C(N[C@@H](CCCNCc1ncc[nH]1)C(=O)NCc1cccc2ccccc12)c1ccc(CNCc2ncc[nH]2)c2ccccc12 [Compound No. 28, (S)-2-(4-((imidazol-2-ylmethyl)aminomethyl)naphthoylamino)-5-((imidazol-2-ylmethyl)amino)valerate 1-naphthalenemethylamide]
  inhibition rate (binding-inhibition % at 0.1 μM): 78.1%

## Cn1ccnc1CNCCC[C@H](NC(=O)c1ccc(CNCc2nccn2C)c2ccccc12)C(=O)NCc1cccc2ccccc12 [Compound No. 29, (S)-2-(4-((1-methylimidazol-2-ylmethyl)aminomethyl)naphthoylamino)-5-((1-methylimidazol-2-ylmethyl)amino)valerate 1-naphthalenemethylamide]
  inhibition rate (binding-inhibition % at 0.1 μM): 56.8%

## Cn1cccc1CNCCC[C@H](NC(=O)c1ccc(CNCc2nccn2C)cc1)C(=O)NCc1cccc2ccccc12 [Compound No. 30, (S)-2-(4-((1-methylimidazol-2-ylmethyl)aminomethyl)benzoylamino)-5-((1-methylpyrrol-2-ylmethyl)amino)valerate 1-naphthalenemethylamide]
  inhibition rate (binding-inhibition % at 0.1 μM): 60.9%

## O=C(N[C@@H](CCCNC1CCCc2cccnc21)C(=O)NCc1cccc2ccccc12)c1ccc(CNCc2ccccn2)c2ccccc12 (stereo partly drawn) [Compound No. 38, (2S)-2-(4-(N-2-picolylaminomethyl)naphthoylamino)-5-(5,6,7,8-tetrahydroquinolin-8-ylamino)valerate 1-naphthalenemethylamide]
  inhibition rate (binding-inhibition % at 0.1 μM): 90.0%

## O=C(N[C@@H](CCCNCc1ccccn1)C(=O)NCc1cccc2ccccc12)c1ccc(CNCc2ncc[nH]2)c2ccccc12 [Compound No. 40, (S)-2-(4-((N-imidazol-2-ylmethyl)aminomethyl)naphthoylamino)-5-(2-picolylamino)valerate 1-naphthalenemethylamide]
  inhibition rate (binding-inhibition % at 0.1 μM): 85.3%

## NC(N)=NCCC[C@H](NC(=O)c1ccc(CNCc2ccccn2)cc1)C(=O)NCc1cccc2ccccc12 [Compound No. 43, N^α-(4-(N-2-picolylaminomethyl)benzoyl)-L-arginine 1-naphthalenemethylamide]
  inhibition rate (binding-inhibition % at 0.1 μM): 43.6%

## N=C(N)NCCC[C@H](NC(=O)c1ccc(CNCc2ccccn2)c2ccccc12)C(=O)NCc1cccc2ccccc12 [Compound No. 44, N^α-(4-(N-2-picolylaminomethyl)naphthoyl)-L-arginine 1-naphthalenemethylamide]
  inhibition rate (binding-inhibition % at 0.1 μM): 88.1%

## N=C(N)NCCC[C@H](NC(=O)c1ccc(CNCc2ncc[nH]2)c2ccccc12)C(=O)NCc1cccc2ccccc12 [Compound No. 45, N^α-(4-((N-imidazol-2-ylmethyl)aminomethyl)naphthoyl)-L-arginine 1-naphthalenemethylamide]
  inhibition rate (binding-inhibition % at 0.1 μM): 95.8%

## N=C(N)NCCC[C@H](NC(=O)c1ccc(CNCc2ncc[nH]2)cc1)C(=O)NCc1cccc2ccccc12 [Compound No. 53, N^α-(4-((imidazol-2-ylmethyl)aminomethyl)benzoyl)-L-arginine 1-naphthalenemethylamide]
  inhibition rate (binding-inhibition % at 0.1 μM): 71.5%

## O=C(N[C@@H](CCCN[C@@H]1CCCc2cccnc21)C(=O)NCc1cccc2ccccc12)c1ccc(CNCc2ccccn2)c2ccccc12 [Compound No. 55, (2S)-2-(4-(N-2-picolylaminomethyl)naphthoylamino)-5-((8R)-5,6,7,8-tetrahydroquinolin-8-ylamino)valerate 1-naphthalenemethylamide]
  inhibition rate (binding-inhibition % at 0.1 μM): 94.6%

## C[C@H](NC(=O)[C@H](CCCNCc1ccccn1)NC(=O)c1ccc(CNCc2ncc[nH]2)c2ccccc12)c1cccc2ccccc12 [Compound No. 56]
  inhibition rate (binding-inhibition % at 0.1 μM): 69.9%

## C[C@@H](NC(=O)[C@H](CCCNCc1ccccn1)NC(=O)c1ccc(CNCc2ncc[nH]2)c2ccccc12)c1cccc2ccccc12 [Compound No. 58]
  inhibition rate (binding-inhibition % at 0.1 μM): 52.0%

## C[C@@H](NC(=O)[C@H](CCCNC1CCCc2cccnc21)NC(=O)c1ccc(CNCc2ncc[nH]2)c2ccccc12)c1cccc2ccccc12 (some centres unmarked) [Compound No. 59]
  inhibition rate (binding-inhibition % at 0.1 μM): 86.0%

## O=C(N[C@@H](CCCNCc1ccccn1)C(=O)NCc1cccc2ccccc12)c1ccc(CNCc2ccccn2)cc1 [Compound No. 60, (S)-2-(4-(N-2-picolylaminomethyl)benzoylamino)-5-(N-2-picolylamino)valerate 1-naphthalenemethylamide]
  inhibition rate (binding-inhibition % at 0.1 μM): 16.8%

## O=C(N[C@@H](CCNCc1ccccn1)C(=O)NCc1cccc2ccccc12)c1ccc(CNCc2ccccn2)cc1 [Compound No. 61, (S)-2-(4-(N-2-picolylamino)methylbenzoylamino)-4-(N-2-picolylamino)lactate 1-naphthalenemethylamide]
  inhibition rate (binding-inhibition % at 0.1 μM): 32.9%

## O=C(N[C@@H](CCCNC1CCCc2cccnc21)C(=O)NCc1cccc2ccccc12)c1ccc(CNC2CCCc3cccnc32)cc1 (stereo partly drawn) [Compound No. 64, (2S)-2-(4-((5,6,7,8-tetrahydroquinolin-8-yl)aminomethyl)benzoylamino)-5-((5,6,7,8-tetrahydroquinolin-8-yl)amino)valerate 1-naphthalenemethylamide]
  inhibition rate (binding-inhibition % at 0.1 μM): 51.6%

## C[C@H](NC(=O)[C@H](CCCNC1CCCc2cccnc21)NC(=O)c1ccc(CNCc2ccccn2)nc1)c1cccc2ccccc12 (stereo partly drawn) [Compound No. 83, (2S)-2-(2-(N-2-picolylaminomethyl)pyridin-5-ylcarbonyl)amino-5-(5,6,7,8-tetrahydroquinolin-8-yl)amino valerate(1′S)-1′-(1-naphthyl)ethylamide]
  inhibition rate (binding-inhibition % at 0.1 μM): 78.0%

## C[C@H](NC(=O)[C@H](CCCNC1CCCc2cccnc21)NC(=O)c1ccc(CNCc2ccccn2)c2ccccc12)c1cccc2ccccc12 (stereo partly drawn) [Compound No. 85, (2S)-2-(4-(N-2-picolylaminomethyl)naphthoyl)amino-5-(5,6,7,8-tetrahydroquinolin-8-yl)amino valerate(1′S)-1′-(1-naphthyl)-ethylamide]
  inhibition rate (binding-inhibition % at 0.1 μM): 90.7%

## C[C@H](NC(=O)[C@H](CCCNCc1nccn1C)NC(=O)c1ccc(CNCc2nccn2C)c2ccccc12)c1cccc2ccccc12 [Compound No. 87]
  inhibition rate (binding-inhibition % at 0.1 μM): 57.9%

## C[C@H](NC(=O)[C@H](CCCNC1CCCc2cccnc21)NC(=O)c1ccc(CNCc2ccccn2)cc1)c1cccc2ccccc12 (stereo partly drawn) [Compound No. 91, (2S)-2-(4-(N-2-picolylaminomethyl)benzoyl)amino-5-(5,6,7,8-tetrahydroquinolin-8-yl)amino valerate(1′S)-1′-(1-naphthyl)ethylamide]
  inhibition rate (binding-inhibition % at 0.1 μM): 94.0%

## C[C@H](NC(=O)[C@H](CCCNC(=N)N)NC(=O)c1ccc(CNCc2ncc[nH]2)cc1)c1cccc2ccccc12 [Compound No. 95]
  inhibition rate (binding-inhibition % at 0.1 μM): 100.0%

## O=C(N[C@@H](CCCNC1CCCc2cccnc21)C(=O)NCc1cccc2ccccc12)c1ccc(CNc2ccccn2)c2ccccc12 (stereo partly drawn) [Compound No. 104, (2S)-2-(4-(2-pyridyl)aminomethylnaphthalene-1-carbonyl)anmino-5-(5,6,7,8-tetrahydroquinolin-8-yl)amino valerate 1-naphthylmethylamide]
  inhibition rate (binding-inhibition % at 0.1 μM): 40.6%
